Data taken from patent US20220047587A1, “SYNERGISTIC COMPOSITIONS COMPRISING R-2-(SUBSTITUTED-SULFONYL)-HEXAHYDRO-PYRROLO[1,2-A]PYRAZIN-6(2H)-ONES AND S-2-(SUBSTITUTED-SULFONYL)-HEXAHYDRO-PYRROLO[1,2-A]PYRAZIN-6(2H)-ONES IN A NON-RACEMIC RATIO” (Metys Pharmaceuticals AG, priority 2018, published 2022).

How the values were obtained:
paclitaxel-treated rats [1] = assay: Paclitaxel-induced mechanical allodynia (von Frey test) after i.v. administration; type: in vivo, rat; conditions: single acute administration 1 mg/kg i.v., adult male Sprague Dawley rats, 0-75 min after injection (FIG. 1)
Description: Each animal was placed in a chamber with a mesh metal floor covered by a plastic dome that enabled the animal to walk freely, but not to jump. The mechanical stimulus was then delivered in the mid-plantar skin of left hind paw using an electronic von Frey apparatus (37400 Dynamic Plantar Aesthesiometer, Ugo Basile, Comerio, Varese, Italy). The cut-off was set at 50 g, while the increasing force rate (ramp duration) was set at 20 s. In the single administration protocol, pain threshold measurements have been performed before (pre-dose) and at regular intervals after treatment. In the repeated treatment protocol, the pre-test value was measured 13 h after the last administration; afterward the animals received a new administration and measures were performed at the described times. Results are expressed in […] and represent the mean±S.E.M. of mechanical thresholds.
(§1) Paclitaxel (2 mg/kg i.p.) was administered on days 1, 3, 5 and 8. Test compounds were dissolved in saline and administered intravenously at the dose of 1 mg/kg to adult male Sprague-Dawley rats (Charles River, Italy, 220-250 g weight). Data were obtained at 0-75 minutes after injection and are expressed as the mean±s.e.m. of six animals. *P<0.05 and **<0.01 vs vehicle+paclitaxel treated rats; °P<0.05 and ^°°P<0.01 vs. NT24336 (R) treated group. […] *P<0.05 and **<0.01 vss vehicle+paclitaxel treated rats.

paclitaxel-treated rats [2] = assay: Paclitaxel-induced peripheral sensory neuropathy model, hyperalgesia (paw pressure) after i.v. administration; type: in vivo, rat
Description: Results are expressed as the minimum dose (via the indicated route) at which a statistically-significant difference is observed when compared to time-matched injured rats receiving a vehicle administration by the same route. An analysis of variance, ANOVA, followed by Fisher's protected least significant difference procedure for post hoc comparison, was used to verify significance between two means of hyperalgesic behavioral results from the Randall & Selitto apparatus paw pressure test (“anti-hyperalgesia”) or from the Von Frey test (“mechanical allodynia”) or from the Cold Plate test (“cold allodynia”). P values 0.05 were considered significant. This definition applies to any doses specified herein as inhibiting “in a statistically significant manner”.
Paw mechanical sensitivity was determined using a Randall & Selitto apparatus (Randall and Selitto, 1957) exerting a force that increases at constant rate (32 g/s). The stimulus causing paw withdrawal was evaluated before and at different times after treatment. Results represent the mean of mechanical thresholds for paw withdrawal expressed as grams. To avoid possible damage to the rat paw the maximum applied force was set at 240 g. In the single administration protocol, paw pressure tests were performed before (pre-dose) and at regular intervals after treatment.
as §1

SMILES | Effect on paclitaxel-induced mechanical allodynia (von Frey test) (paclitaxel-treated rats [1]; 1 mg/kg) | Effect on paclitaxel-induced mechanical allodynia (von Frey test) (paclitaxel-treated rats [1]) | Lowest dose at which paclitaxel-induced hyperalgesia is inhibited in a statistically significant manner (P < 0.05) (paclitaxel-treated rats [2]; 15 min after administration) [mg/kg] | Lowest dose at which paclitaxel-induced hyperalgesia is inhibited in a statistically significant manner (P < 0.05) (paclitaxel-treated rats [2]; 30 min after administration) [mg/kg] | Lowest dose at which paclitaxel-induced hyperalgesia is inhibited in a statistically significant manner (P < 0.05) (paclitaxel-treated rats [2]; 45 min after administration) [mg/kg]
O=C1CCC2CN(S(=O)(=O)c3ccccc3F)CCN12 (racemic) [R:S mixture 1:1, 2-(2-fluorobenzenesulfonyl)hexahydropyrrolo[1,2-a]pyrazin-6-one] | marginally effective | – | – | – | –
O=C1CCC2CN(S(=O)(=O)c3ccccc3F)CCN12 (racemic) [R:S mixture 3:1, 2-(2-fluorobenzenesulfonyl)hexahydropyrrolo[1,2-a]pyrazin-6-one] | the most active one | – | – | – | –
O=C1CCC2CN(S(=O)(=O)c3ccccc3F)CCN12 (stereo not drawn) [NT-24781, 2-(2-fluorobenzenesulfonyl)hexahydropyrrolo[1,2-a]pyrazin-6-one] | – | almost inactive | >3 | >3 | >3
